Test results from paper PMC5216056 (Nature Communications, 2017).
Values joined by “and” are separate entries in the source; they are usually repeats but may differ in a detail not shown here. Identical values can stand only once. Like-named read-outs stand apart in the source and are kept apart here.

Tests used:
[1] = molecular target: T1, N muscle-type (h) (Homo sapiens, UniProt P02708+P07510+P11230+Q07001); experiment: CEREP panel; assay type: binding; settings: for % inhibition N muscle-type (h): 10 µM
T1 construct: CEREP (contract assay)

[2] = molecular target: T2, Human recombinant TRPV1 (Homo sapiens, UniProt Q8NER1); experiment: cell-based; assay type: cell-based; settings: for EC50: read-out: TRPV1 Potency EC50
T2 construct: expressed in transfected cells; host or cells: HEK293 (TRPV1-HEK-293, gift from John Davis, GlaxoSmithKline)

[3] = molecular target: T3, MAGL (Homo sapiens, UniProt Q99685); experiment: Biochemical MAGL activity assay; settings: for inhibition at 10 µM: read-out: MAGL % inhibition at 10 µM ± SD
T3 construct: expressed in transfected cells; host or cells: HEK293T (transient), membrane preparation
T3 sequence (Q99685 1-303): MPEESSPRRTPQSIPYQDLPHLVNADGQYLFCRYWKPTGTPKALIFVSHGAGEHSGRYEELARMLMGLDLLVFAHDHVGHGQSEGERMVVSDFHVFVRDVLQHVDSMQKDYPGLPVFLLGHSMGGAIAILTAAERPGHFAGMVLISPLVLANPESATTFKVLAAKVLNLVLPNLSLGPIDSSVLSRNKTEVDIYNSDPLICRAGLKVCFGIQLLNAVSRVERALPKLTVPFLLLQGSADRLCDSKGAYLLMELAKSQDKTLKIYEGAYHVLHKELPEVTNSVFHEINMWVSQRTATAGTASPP
Method: Cell culture and membrane preparation were performed as previously described. HEK293T cells (source: Dutch Cancer Institute) were grown in DMEM with stable glutamine and phenolred (PAA), 10% New Born Calf serum, penicillin and streptomycin. Cells were passaged every 2–3 days by resuspending in medium and seeding them to appropriate confluence. Membranes were prepared from transiently transfected HEK293T cells. One day prior to transfection 10^7 cells were seeded in a 15 cm petri dish. Cells were transfected by the addition of a 3:1 mixture of polyethyleneimine (60 μg) and plasmid DNA (20 μg) in 2 ml serum-free medium. The medium was refreshed after 24 h, and after 72 h the cells were harvested by suspending them in 20 ml medium. The suspension was centrifuged for 10 min at 1000, rpm, and the supernatant was removed. The cell pellet was stored at −80 °C until use. Cell pellets were thawed on ice and suspended in lysis buffer A (20 mM HEPES, 2 mM DTT, 0.25 M sucrose, 1 mM MgCl2, […] Benzonase). The suspension was homogenized by polytrone (3 × 7 s) and incubated for 30 min on ice. The suspension was subjected to ultracentrifugation (100,000 × g, 30 min, 4 °C, Beckman Coulter, Type Ti70 rotor) to yield the cytosolic fraction in the supernatant and the membrane fraction as a pellet. The pellet was resuspended in lysis buffer B (20 mM HEPES, 2 mM DTT). The protein concentration was determined with Quick Start Bradford assay (Biorad). The protein fractions were diluted to a total protein concentration of 1 mg ml^−1 and stored in small aliquots at −80 °C until use.
Percentage of inhibition of reference ligands was determined in comparison with an untreated control. […] Fluorescence was measured in 5 min intervals for 60 min.

[4] = molecular target: T4, hCB1R (Homo sapiens, UniProt P21554); experiment: cell-based; assay type: cell-based; settings: for Emax: read-out: Emax ± SEM β-AR recruitment hCB1R
T4 construct: host or cells: CHO

[5] = molecular target: T4, hCB1R; experiment: cell-based; settings: for Emax: read-out: Emax ± SEM cAMP hCB1R
[6] = 1 μM
[7] = molecular target: T5, hGPR55 (Homo sapiens, UniProt Q9Y2T6); experiment: cell-based
T5 construct: host or cells: CHO-K1 (PathHunter hGPR55_bgal)

[8] = molecular target: mouse P-gp (Mus musculus, UniProt P21447); settings: efflux ratio
[9] = molecular target: T4, hCB1R; experiment: biochemical; assay type: binding
[10] = molecular target: T6, FAAH (Homo sapiens, UniProt O00519); experiment: FAAH activity, U937 cell homogenate; assay type: biochemical; settings: for inhibition at 5 µM: read-out: FAAH % inhibition at 5 µM
T6 construct: host or cells: U937
T6 sequence (O00519 1-579): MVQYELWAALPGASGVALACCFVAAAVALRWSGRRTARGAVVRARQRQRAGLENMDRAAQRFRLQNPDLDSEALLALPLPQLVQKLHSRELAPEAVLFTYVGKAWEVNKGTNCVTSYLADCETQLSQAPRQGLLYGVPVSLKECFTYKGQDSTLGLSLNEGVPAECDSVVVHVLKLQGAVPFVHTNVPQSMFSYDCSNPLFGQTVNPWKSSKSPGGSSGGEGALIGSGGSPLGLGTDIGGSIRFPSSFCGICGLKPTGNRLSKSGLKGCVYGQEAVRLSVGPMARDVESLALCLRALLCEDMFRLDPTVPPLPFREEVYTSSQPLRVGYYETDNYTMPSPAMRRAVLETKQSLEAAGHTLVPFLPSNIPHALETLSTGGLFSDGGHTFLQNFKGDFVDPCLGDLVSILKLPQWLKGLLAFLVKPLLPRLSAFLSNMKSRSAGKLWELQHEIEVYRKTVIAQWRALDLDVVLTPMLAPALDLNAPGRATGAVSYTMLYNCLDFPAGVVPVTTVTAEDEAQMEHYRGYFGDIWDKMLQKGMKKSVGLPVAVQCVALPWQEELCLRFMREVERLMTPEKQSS
Method: FAAH activity was assessed using U937 cell homogenate (source: U937 cells were purchased from ATCC, Manassas, VA, USA). Tested compounds (at the concentrations of 1 and 5 μM) or solvent (≤1% of the final volume) were pre-incubated at 37 °C for 30 min with 100 μg of cell homogenate diluted in assay buffer (10 mM Tris-HCl and 1 mM EDTA, pH 7.6 and 1% w/v fatty acid-free BSA). Successively, a mixture of 99.5 nM […] of AEA and 0.5 nM of [ethanolamine-1-3H]-AEA (40–60 Ci mmol^−1) was added to the homogenate (final concentration of 100 nM) and incubated for 10 min at 37 °C under shaking. After the incubation time, 2 volumes of an ice-cold methanol: chloroform mixture 1:1 (v/v) were added to each sample, vigorously vortexed and centrifuged at 10,000g for 10 min at 4 °C to separate aqueous and organic phases. The aqueous phases were collected and the radioactivity associated with the hydrolysis product [3H]-ethanolamine was measured after addition of 3 ml of scintillation cocktail using the Tri-Carb 2100 TR scintillation counter. Data were collected from three independent experiments performed in triplicate and results were expressed as FAAH activity, relative to that in vehicle-treated samples (=100%).

[11] = read-out: TRPV1 IC50 for antagonism or desensitization
[12] = β-arrestin recruitment, read-out: GPR55 pEC50 (± SEM) (converted)
[13] = TRPV1 IC50 for antagonism or desensitization
[14] = CHO membranes, Leiden, HU210 and SR144528 from Roche

T2 sequence (Q8NER1 whole entry): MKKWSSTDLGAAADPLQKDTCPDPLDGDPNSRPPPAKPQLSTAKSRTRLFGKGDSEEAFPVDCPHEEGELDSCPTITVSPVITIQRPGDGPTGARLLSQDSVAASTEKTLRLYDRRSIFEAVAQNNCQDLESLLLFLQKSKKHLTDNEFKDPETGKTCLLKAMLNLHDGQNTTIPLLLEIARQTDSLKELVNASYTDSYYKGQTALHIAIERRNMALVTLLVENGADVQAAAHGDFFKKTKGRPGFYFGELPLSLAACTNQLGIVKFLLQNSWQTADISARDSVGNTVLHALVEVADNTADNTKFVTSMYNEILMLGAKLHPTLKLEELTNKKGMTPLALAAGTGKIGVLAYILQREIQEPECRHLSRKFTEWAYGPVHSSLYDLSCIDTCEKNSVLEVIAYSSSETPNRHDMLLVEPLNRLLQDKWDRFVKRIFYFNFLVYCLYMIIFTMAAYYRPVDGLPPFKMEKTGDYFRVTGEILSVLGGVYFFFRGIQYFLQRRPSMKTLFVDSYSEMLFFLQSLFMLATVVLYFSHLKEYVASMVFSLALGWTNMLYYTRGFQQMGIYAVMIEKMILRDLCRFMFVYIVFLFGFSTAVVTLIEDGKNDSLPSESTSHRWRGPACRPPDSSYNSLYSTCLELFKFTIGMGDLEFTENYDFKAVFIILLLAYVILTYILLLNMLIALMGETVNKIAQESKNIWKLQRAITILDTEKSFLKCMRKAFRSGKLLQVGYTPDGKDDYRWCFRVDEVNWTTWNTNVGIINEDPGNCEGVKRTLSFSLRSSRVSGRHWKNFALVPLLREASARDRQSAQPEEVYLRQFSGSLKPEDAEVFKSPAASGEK
T4 sequence (P21554 whole entry): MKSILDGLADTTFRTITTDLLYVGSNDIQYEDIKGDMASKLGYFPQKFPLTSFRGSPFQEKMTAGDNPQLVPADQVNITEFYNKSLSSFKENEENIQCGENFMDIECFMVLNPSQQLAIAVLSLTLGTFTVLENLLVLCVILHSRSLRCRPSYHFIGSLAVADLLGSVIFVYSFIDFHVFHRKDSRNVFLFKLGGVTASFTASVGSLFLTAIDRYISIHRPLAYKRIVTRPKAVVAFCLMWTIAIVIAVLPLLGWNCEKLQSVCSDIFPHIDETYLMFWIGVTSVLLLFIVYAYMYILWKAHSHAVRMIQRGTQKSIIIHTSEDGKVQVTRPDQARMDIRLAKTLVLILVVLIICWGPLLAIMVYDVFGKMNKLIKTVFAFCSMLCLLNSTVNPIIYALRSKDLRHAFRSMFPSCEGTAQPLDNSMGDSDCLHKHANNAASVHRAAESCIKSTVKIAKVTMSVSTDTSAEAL
T5 sequence (Q9Y2T6 whole entry): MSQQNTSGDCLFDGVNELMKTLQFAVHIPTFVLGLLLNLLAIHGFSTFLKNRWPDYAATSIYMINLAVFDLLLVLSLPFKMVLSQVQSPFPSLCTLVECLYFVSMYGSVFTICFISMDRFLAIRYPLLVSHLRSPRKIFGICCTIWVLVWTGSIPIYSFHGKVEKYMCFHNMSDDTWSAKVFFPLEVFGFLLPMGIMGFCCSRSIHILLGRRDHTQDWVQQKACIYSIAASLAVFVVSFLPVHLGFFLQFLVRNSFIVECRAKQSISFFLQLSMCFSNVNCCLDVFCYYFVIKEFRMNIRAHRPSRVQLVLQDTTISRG
T1 sequence (P02708 21-457): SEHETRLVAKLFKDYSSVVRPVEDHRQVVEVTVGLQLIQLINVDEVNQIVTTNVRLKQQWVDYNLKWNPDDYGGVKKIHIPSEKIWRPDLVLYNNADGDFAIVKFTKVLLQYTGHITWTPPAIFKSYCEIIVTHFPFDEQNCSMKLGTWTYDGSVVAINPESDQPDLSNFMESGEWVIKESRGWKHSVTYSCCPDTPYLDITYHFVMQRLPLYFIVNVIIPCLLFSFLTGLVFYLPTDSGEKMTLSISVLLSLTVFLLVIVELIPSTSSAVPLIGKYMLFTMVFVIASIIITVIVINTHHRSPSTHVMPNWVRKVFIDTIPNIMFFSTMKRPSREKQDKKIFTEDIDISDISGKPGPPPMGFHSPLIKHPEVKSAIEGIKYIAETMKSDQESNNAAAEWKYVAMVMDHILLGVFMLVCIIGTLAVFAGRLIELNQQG
T1 sequence (P11230 24-501): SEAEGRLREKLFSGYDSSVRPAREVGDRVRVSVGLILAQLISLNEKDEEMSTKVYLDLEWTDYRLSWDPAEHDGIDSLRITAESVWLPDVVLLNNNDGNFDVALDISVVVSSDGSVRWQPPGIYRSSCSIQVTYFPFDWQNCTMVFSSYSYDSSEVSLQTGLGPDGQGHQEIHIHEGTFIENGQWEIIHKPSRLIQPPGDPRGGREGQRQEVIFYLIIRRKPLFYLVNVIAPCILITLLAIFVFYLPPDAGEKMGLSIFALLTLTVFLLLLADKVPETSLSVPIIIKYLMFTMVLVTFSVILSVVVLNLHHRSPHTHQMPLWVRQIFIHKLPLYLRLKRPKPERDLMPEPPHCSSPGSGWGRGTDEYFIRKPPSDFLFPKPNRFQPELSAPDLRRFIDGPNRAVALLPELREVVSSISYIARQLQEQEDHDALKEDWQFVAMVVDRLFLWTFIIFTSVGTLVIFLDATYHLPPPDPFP
T1 sequence (Q07001 22-517): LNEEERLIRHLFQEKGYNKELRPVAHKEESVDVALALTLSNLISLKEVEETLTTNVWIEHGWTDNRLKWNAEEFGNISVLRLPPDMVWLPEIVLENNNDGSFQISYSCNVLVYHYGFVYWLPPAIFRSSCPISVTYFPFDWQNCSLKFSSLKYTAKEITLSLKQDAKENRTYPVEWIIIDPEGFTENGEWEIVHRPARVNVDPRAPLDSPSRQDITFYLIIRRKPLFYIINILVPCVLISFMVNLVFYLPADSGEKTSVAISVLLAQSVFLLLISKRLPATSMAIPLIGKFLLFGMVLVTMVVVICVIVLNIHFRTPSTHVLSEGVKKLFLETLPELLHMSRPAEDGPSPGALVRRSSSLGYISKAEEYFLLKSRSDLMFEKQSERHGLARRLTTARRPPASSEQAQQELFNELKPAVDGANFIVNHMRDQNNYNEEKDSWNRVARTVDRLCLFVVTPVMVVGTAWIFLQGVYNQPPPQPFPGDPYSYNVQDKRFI
T1 sequence (P07510 23-517): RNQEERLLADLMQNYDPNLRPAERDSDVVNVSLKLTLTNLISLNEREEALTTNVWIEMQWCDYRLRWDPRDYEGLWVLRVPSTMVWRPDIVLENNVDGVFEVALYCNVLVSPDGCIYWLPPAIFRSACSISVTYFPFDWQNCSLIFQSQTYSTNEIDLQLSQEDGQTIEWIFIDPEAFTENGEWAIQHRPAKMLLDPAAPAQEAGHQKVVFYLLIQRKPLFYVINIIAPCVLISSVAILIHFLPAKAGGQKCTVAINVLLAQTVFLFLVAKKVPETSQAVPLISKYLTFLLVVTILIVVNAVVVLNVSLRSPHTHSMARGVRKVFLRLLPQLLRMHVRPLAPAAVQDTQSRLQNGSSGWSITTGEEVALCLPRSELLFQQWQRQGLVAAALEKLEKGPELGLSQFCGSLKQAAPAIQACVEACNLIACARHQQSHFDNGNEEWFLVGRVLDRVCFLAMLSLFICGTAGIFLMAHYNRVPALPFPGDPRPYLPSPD
Chain of mouse P-gp (P21447 whole entry): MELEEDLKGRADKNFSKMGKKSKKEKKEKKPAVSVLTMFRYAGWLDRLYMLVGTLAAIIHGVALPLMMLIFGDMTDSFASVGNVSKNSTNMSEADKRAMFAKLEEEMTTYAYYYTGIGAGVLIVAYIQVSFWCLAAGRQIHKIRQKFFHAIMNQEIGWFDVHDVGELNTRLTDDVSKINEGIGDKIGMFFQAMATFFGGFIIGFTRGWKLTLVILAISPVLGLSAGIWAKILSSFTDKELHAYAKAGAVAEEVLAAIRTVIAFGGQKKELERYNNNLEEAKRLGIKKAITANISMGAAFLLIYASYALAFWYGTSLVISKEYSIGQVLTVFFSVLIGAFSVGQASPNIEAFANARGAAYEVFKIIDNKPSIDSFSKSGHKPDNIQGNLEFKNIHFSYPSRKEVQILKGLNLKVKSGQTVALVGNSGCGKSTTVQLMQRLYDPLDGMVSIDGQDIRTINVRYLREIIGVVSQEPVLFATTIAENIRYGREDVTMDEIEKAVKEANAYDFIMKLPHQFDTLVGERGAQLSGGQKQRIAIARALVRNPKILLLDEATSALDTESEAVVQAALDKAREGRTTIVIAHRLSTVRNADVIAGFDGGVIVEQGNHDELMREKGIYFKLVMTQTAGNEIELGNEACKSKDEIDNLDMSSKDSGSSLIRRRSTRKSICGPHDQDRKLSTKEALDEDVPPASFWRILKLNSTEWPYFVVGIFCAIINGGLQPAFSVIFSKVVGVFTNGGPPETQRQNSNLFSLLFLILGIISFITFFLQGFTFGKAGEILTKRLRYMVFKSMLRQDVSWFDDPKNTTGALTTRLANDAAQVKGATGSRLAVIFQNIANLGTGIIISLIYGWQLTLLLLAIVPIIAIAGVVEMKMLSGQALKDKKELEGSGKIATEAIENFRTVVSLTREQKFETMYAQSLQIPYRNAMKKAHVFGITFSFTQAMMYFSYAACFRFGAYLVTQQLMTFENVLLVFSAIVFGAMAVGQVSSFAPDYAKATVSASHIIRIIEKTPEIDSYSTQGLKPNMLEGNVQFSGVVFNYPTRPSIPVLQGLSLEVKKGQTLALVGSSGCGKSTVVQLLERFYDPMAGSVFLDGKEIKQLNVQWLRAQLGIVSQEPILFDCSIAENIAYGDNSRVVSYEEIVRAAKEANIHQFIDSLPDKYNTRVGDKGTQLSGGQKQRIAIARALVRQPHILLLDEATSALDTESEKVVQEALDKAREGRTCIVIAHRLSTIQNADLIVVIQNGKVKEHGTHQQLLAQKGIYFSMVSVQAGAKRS

| Molecule | TRPV1 Efficacy (% ionomycin 4μM) [2] [%] | MAGL % inhibition at 10 µM ± SD [3] [%] | Emax ± SEM β-AR recruitment hCB1R [4] | pEC50 ± SEM cAMP hCB1R [5] | IC50 [2, 11] [µM] | EC50 [2] [µM] | pEC50 ± SEM β-AR recruitment hCB1R [4] | inhibition at 10 µM [3] [%] | FAAH % inhibition at 5 µM ([10]; 5 µM, U937 cell homogenate) | also measured |
| --- | --- | --- | --- | --- | --- | --- | --- | --- | --- | --- |
| SR144528 | < 10 | 3 ± 16 | -82 ± 5 | – | – | – | – | – | – | % inhibition N muscle-type (h) [1]: -3% |
| CCCC(C)(C)c1ccc2c(c1)OC(C)(C)[C@@H]1CC=C(C)C[C@@H]21 [JWH133] | 24.6 | -20 ± 5 | 40 ± 7 | < 5 | 77.7 ± 3 | 8.2 | 5.37 ± 0.05 | – | – | Emax ± SEM cAMP hCB1R [5]: 37 ± 6; CL hepatocytes human [6]: 5.6 µL/min/mio cells; GPR55 Emax ± SEM (%) or % effect at 10 µM ([7]; β-arrestin recruitment): -2 ± 3%; GPR55 pEC50 (± SEM) ([7]; β-arrestin recruitment): < 5; P-gp (ER) mouse [8]: 1.7; pKi ± SEM hCB1R [9]: < 5 |
| CCCCCCC(C)(C)c1ccc([C@@H]2C[C@H](O)CC[C@H]2CCCO)c(O)c1 [CP55940] | – | – | – | – | – | – | – | 5 ± 16 | – | inhibition at 10 µM [1]: -4%; EC50 [7, 12]: > 10 µM; Emax [4]: 94 ± 2% |
| Cc1c(C(=O)NN2CCCCC2)nn(-c2ccc(Cl)cc2Cl)c1-c1ccc(Cl)cc1 [SR141716A] | 17.5 | – | – | – | – | 12 | – | 4 ± 18 | – | IC50 [2, 13]: 33.7 µM and 11.5 µM; inhibition at 5 µM ([10]; 5 µM, U937 cell homogenate): < 25% |
| Cc1ccc2c(c1)Cc1c(C(=O)NN3CCCCC3)nn(-c3ccc(Cl)cc3Cl)c1-2 [Gp-1a] | < 10 | -1 ± 15 | -83 ± 7 | < 5 | 3 ± 0.1 | – | < 5 | – | < 50% and 30–40% | Emax ± SEM cAMP hCB1R [5]: 19 ± 5; CL hepatocytes human [6]: 32 µL/min/mio cells; GPR55 pEC50 (± SEM) ([7]; β-arrestin recruitment): < 5; P-gp (ER) mouse [8]: 1.1; pKi ± SEM hCB1R [9, 14]: 6.97 ± 0.35 |
| CCCCCCC(C)(C)c1cc(OC)c([C@@H]2C=C(CO)[C@@H]3C[C@H]2C3(C)C)c(OC)c1 [HU308] | < 10 | – | – | – | – | – | – | 7 ± 13 | – | EC50 ([5]; pEC50 ± SEM cAMP hCB1R): > 10 µM; Emax [5]: 18 ± 4%; IC50 [2, 13]: 69 ± 5.7 µM; inhibition at 5 µM [10]: < 25%; EC50 [7]: > 10 µM; Emax at 10 µM ([7]; read-out: GPR55 Emax ± SEM (%) or % effect at 10 µM): -6 ± 5%; EC50 [4]: > 10 µM; Emax [4]: 5 ± 1%; Ki [9]: > 10 µM |
| CN1CCCCC1Cn1cc(C(=O)c2cc([N+](=O)[O-])ccc2I)c2ccccc21 (racemic) [(rac)-AM1241] | – | -2 ± 17 | 6 ± 5 | < 5 | – | – | < 5 | – | – | pKi ± SEM hCB1R [9]: 6.89 ± 0.31 |
| Cc1c(C(=O)c2cccc3ccccc23)c2cccc3c2n1[C@H](CN1CCOCC1)CO3 [WIN55212-2] | 44.4 | 3 ± 18 | – | – | 35.8 ± 2.2 | 19.2 | – | – | < 25% | % inhibition N muscle-type (h) [1]: 7%; CL hepatocytes human [6]: 42 µL/min/mio cells; GPR55 pEC50 (± SEM) ([7]; β-arrestin recruitment): < 5 |
| CCCCC/C=C\C/C=C\C/C=C\C/C=C\CCCC(=O)OC(CO)CO [2-AG, 2-arachidonoyl glycerol] | – | – | – | – | – | – | – | 3 ± 15 | – | Emax [5]: < 70% |
| Cc1c(C(=O)NN2CCCCC2)nn(-c2ccc(Cl)cc2Cl)c1-c1ccc(I)cc1 [AM251] | – | 0 ± 16 | – | – | – | – | – | – | < 50% and 30–40% | % inhibition N muscle-type (h) [1]: 12%; GPR55 pEC50 (± SEM) [7]: 5.49±0.09; GPR55 Emax ± SEM (%) or % effect at 10 µM ([7]; β-arrestin recruitment): 82±9% |
| CCCCC/C=C\C/C=C\C/C=C\C/C=C\CCCC(=O)NCCO [Anandamide, N-arachidonoylethanolamine] | – | – | – | – | – | – | – | -2 ± 19 | – | EC50 [7, 12]: > 10 µM |
| CN1CCCC[C@@H]1Cn1cc(C(=O)c2cc([N+](=O)[O-])ccc2I)c2ccccc21 [(R)-AM1241] | 10.7 | -2 ± 18 | 26 ± 2 | 6.17 ± 0.12 | > 50 | > 50 | 5.59 ± 0.13 | – | < 25% | Emax ± SEM cAMP hCB1R [5]: 54 ± 7; pKi ± SEM hCB1R [9, 14]: 6.86 ± 0.46 |
